“Also recorded” adds a separate entry of the source.
Assays:
Format in all cases: cell-based, human
ARPE-19 cells and hpRPE = experiment: Apoptosis by Hoechst staining in RPE cells under UOS
Experimental: ARPE-19 cells, can be plated and grown in DMEM/F-12 containing 10% FBS and 1× penicillin/streptomycin at 37° C., 5% CO2, 99% relative humidity for 24 h. […] 15-LOX-1 deficient cells can be maintained in the same medium as ARPE-19 with the addition of 500 μg/mL Geneticin (Life Technologies Corporation, Carlsbad, Calif.). Transfection can be performed in all cases using Lipofectamine 2000 (Life Technologies Corporation, Carlsbad, Calif.) following the manufacturer's recommendations. […] Experiments with transfection efficiency that yielded less than 80% can be discarded. For siRNA, we used 6 μl of Lipofectamine 2000 per 50 pmol of siRNA per mL of incubation medium, and, for plasmids, we used 6 μl of Lipofectamine 2000 per 2 μg of plasmid per mL of incubation medium. Cells can be incubated for 5 hours at 37° C., 5% CO2 and 99% relative humidity. […] When siRNA/plasmid co-transfection is required, siRNA and plasmid-carrying transfection mixes can be prepared separately and added one after the other in the same well. Oxidative stress treatments can be performed using 600 (ARPE-19) or 1600 (hRPE) μM H2O2, along with 10 ng/mL TNFα, for the required time indicated in each experiment. The treatment we used employed the low serum (0.5% serum) without hFGF. Treatment to induce uncompensated oxidative stress (UOS) can be performed after 8 hours of low-serum medium incubation unless specifically noted. Wnt5a, Wnt3a or NPD1 can be added immediately before induction of UOS. In the secretion experiments, Pitstop 2 can be added to the medium 2 hours before harvesting.
(§1) Immunostaining can be performed in 8-well slide chambers and the Hoechst staining in 24-well plates. […] Briefly, cells can be fixed using 4% paraformaldehyde in PBS 1× for 20 min at room temperature or overnight at 4° C. After three washes with PBS, cells can be permeabilized using 0.1% Triton™ X-100 for five minutes and blocked using 10% normal serum and 1% BSA for one hour. […] Hoechst staining can be performed using same protocol of fixation. In one embodiment, permeabilization is done using methanol for 20 min at room temperature. […] Dying cells can be identified by size (0 to 50 pixels), intensity threshold, and circularity. The ratio of hyperpyknotic cells over the total can be calculated for nine randomly chosen fields per sample obtained from three independent wells per experiment. Each experiment can be repeated at least three times to confirm the findings.
ARPE-19 cells, were plated and grown in DMEM/F-12 containing 10% FBS and 1× penicillin/streptomycin at 37° C., 5% CO2, 99% relative humidity for 24 h. […] 15-LOX-1 deficient cells were maintained in the same medium as ARPE-19 with the addition of 500 μg/mL Geneticin (Life Technologies Corporation). Transfection was performed in all cases using Lipofectamine 2000 (Life Technologies Corporation) following the manufacturer's recommendations. […] Experiments with transfection efficiency that yielded less than 80% were discarded. For siRNA, we used 6 μl of Lipofectamine 2000 per 50 pmol of siRNA per mL of incubation medium, and, for plasmids, we used 6 μl of Lipofectamine 2000 per 2 μg of plasmid per mL of incubation medium. Cells were incubated for 5 hours at 37° C., 5% CO2 and 99% relative humidity. […] When siRNA/plasmid co-transfection was required, siRNA and plasmid-carrying transfection mixes were prepared separately and added one after the other in the same well. […] The treatment we used employed the low serum (0.5% serum) without hFGF. Treatment to induce uncompensated oxidative stress (UOS) was performed after 8 hours of low-serum medium incubation unless specifically noted. Wnt5a, Wnt3a or NPD1 was added immediately before induction of UOS.

Wnt5a/FZD5 = experiment: Immunocytochemistry of Wnt5a/FZD5 colocalization and vesicles in hpRPE cells; conditions: for number of Wnt5a/FZD5 colocalized vesicles per field: hpRPE, UOS 1600 μM H2O2, 2 hours, +/− 50 ng/ml Wnt5a, no Pitstop2
Experimental: To ascertain localization and interaction between FZD5 and Wnt5a we incubated hpRPE undergoing UOS with Wnt5a+/−NPD1 or other lipid mediators.
as §1
In an embodiment involving early stages of apoptosis, the total number of cells per field is assessed and counted to ensure unbiased observations. […] Settings can be adjusted in the conditions that show higher intensity and can be used throughout the remaining samples. In an embodiment, Pearson's colocalization coefficient (PCC) is obtained using FV1200 analysis software for every field in each experiment, and the mean and SEM are depicted in FIGS. 7-11.
Immunostaining was performed in 8-well slide chambers and the Hoechst staining in 24 well plates. […] Briefly, cells were fixed using 4% paraformaldehyde in PBS 1× for 20 min at room temperature or overnight at 4° C. After three washes with PBS, cells were permeabilized using 0.1% Triton™ X-100 for five minutes and blocked using 10% normal serum and 1% BSA for one hour. […] Hoechst staining was performed using same protocol of fixation, but permeabilization was done using methanol for 20 min at room temperature. […] Dying cells were identified by size (0 to 50 pixels), intensity threshold and circularity. The ratio of hyperpyknotic cells over the total was calculated for nine randomly chosen fields per sample obtained from three independent wells per experiment. Each experiment was repeated at least three times to confirm the findings. In the experiments involving early stages of apoptosis, we assessed the total number of cells per field and counted them to ensure unbiased observations. […] Pearson's colocalization coefficient (PCC) was obtained using FV1200 analysis software for every field in each experiment, and the mean and SEM are depicted in Figures S1-S5. […] IMARIS software analysis was performed building a colocalization channel using the Costes thresholding, and the colocalized elements were analyzed using the spots function using the settings different spots sites, background subtraction and local contrast. The output obtained consisted on a collection of sizes (one per element in each picture) or the mean of the intensity in each spot.

Wnt5a = experiment: Western blot of secreted (sWnt5a) and cellular (cWnt5a) Wnt5a in RPE cells under UOS
Experimental: To monitor transcription, translation, and secretion of Wnt5a, we performed western blot assays using cellular lysates and medium from hpRPE undergoing UOS+/−NPD1 at different time points. Medium was precipitated using Methanol/Chloroform to bring down all secreted Wnt5a.
The pellet can be re-suspended and denatured in 100 μl of 2× Laemmli sample buffer (Bio-Rad Laboratories, Hercules, Calif.) at 95° C. for 5 min. MCAo brain tissue and cell samples can be homogenized using RIPA (Thermo Fisher Scientific, Waltham, Mass.) buffer supplemented with protease and phosphatase inhibitor cocktails (Millipore Sigma, Burlington, Mass.). In embodiments, the amount of 30 μg of total protein is loaded in NuPAGE® Novex® 4-12% Bis-Tris precast gels (Life Technologies Corporation, Carlsbad, Calif.) and run at constant 120V for about 1 hour and 20 min. Proteins can be transferred to μm Nitrocellulose membrane using Bio-Rad Trans-Blot® Turbo™ System (Bio-Rad Laboratories, Hercules, Calif.). ECL™ Plex Fluorescent Rainbow Markers (GE Healthcare, Chicago, Ill.) can be used as the ladder for protein's molecular weight. Membranes can be blocked using 5% non-fat dry milk (Bio-Rad Laboratories, Hercules, Calif.) in TBS with 1% Tween® 20 (TBST-10×) (Croda International, Snaith, United Kingdom) for 1 hour and incubated overnight with primary antibodies. Anti-mouse or anti-rabbit secondary antibodies conjugated with Cy3 or Cy5 can be used to visualize the protein of interest. Immunoblots can be documented using LAS 4000 imaging system (GE Healthcare Life Sciences, Marlborough, Mass.). A time course exposition can be produced in each case to prevent quantification of saturated images. In embodiments, densitometry data are obtained using ImageQuant™ TL software (GE Healthcare Life Sciences, Marlborough, Mass.).
The pellet was re-suspended and denatured in 100 μl of 2× Laemmli sample buffer (Bio-Rad Laboratories) at 95° C. for 5 min. MCAo brain tissue and cell samples were homogenized using RIPA (Thermo Fisher Scientific) buffer supplemented with protease and phosphatase inhibitor cocktails (Sigma). The amount of 30 μg of total protein was loaded in NuPAGE® Novex® 4-12% Bis-Tris precast gels (Life Technologies Corporation) or Mini-PROTEAN TGX Stain free gels 4-15% and ran at constant 120V for 1 hour and 20 min or 250 V for 40 min respectively. Proteins were transferred to μm Nitrocellulose or LF-PVDF membrane using Bio-Rad Trans-Blot® Turbo™ System (Bio-Rad Laboratories). ECL™ Plex Fluorescent Rainbow Markers (GE Healthcare) were used as the ladder for protein's molecular weight. […] A time course exposition was produced in each case to prevent quantification of saturated images. […]

NF-κB/p65 = NF-κB/p65 luciferase reporter assay in hpRPE cells; conditions: hpRPE under UOS in the presence of Wnt5a 50 ng/ml; NPD1 100 or 200 nM; Pitstop2 25 μM
Experimental: We asked if Wnt5a activates inflammatory signaling to enhance apoptosis mediated by UOS by assessing COX-2 promoter activation (FIG. 10). […] To compare Wnt5a effects with other cytokines that enhance COX-2 expression, Interleukin-1β (IL-1β) activity was measured. […] To determine if Wnt5a activates NF-κB, hpRPE were transfected with a construct that encompassed three p65 high-affinity binding sites in tandem, driving the expression of the luciferase reporter gene (FIG. 1G). […] To assess whether or not FDZ5 and ROR2 were involved in NF-κB activation by Wnt5a, cells were co-transfected with siRNAs targeting the two receptors (FIG. 11).
(§2) Except TOP/FOP flash, the Luciferase activity can be standardized using a construct expressing GFP constitutively under CMV virus promoter. To assess luciferase activity, cell lysates can be obtained using Passive Lysis Buffer (Promega, Madison, Wis.) and mixed with a luciferase assay reagent (Promegam Madison, Wis.). Chemiluminescence produced by luciferase and fluorescence from GFP can be detected using Appliscan 2.3. Data can be analyzed using SkanIt 2.3 (Thermo Fisher Scientific, Waltham, Mass.).
Except TOP/FOP flash, the Luciferase activity was standardized using a construct expressing GFP constitutively under CMV virus promoter. To assess luciferase activity, cell lysates were obtained using Passive Lysis Buffer (Promega) and mixed with a luciferase assay reagent (Promega). Chemiluminescence produced by luciferase and fluorescence from GFP was detected using Appliscan 2.3. Data were analyzed using SkanIt 2.3 (Thermo Fisher Scientific).

COX-2 promoter = COX-2 promoter luciferase reporter assay; conditions: ARPE-19 cells; 50 ng/ml Wnt5a or 20 ng/ml IL1-β
Excerpt: as §2
A, Design of luciferase reporter assay performed with COX-2 promoter construct. UOS was induced by the addition of 10 ng/ml TNFα and 600 μM H2O2 in ARPE-19 cells. The concentrations of Wnt5a used was 50 ng/ml. Cells were co-transfected with the constructs driving the expression of luciferase and a plasmid that constitutively expressed green fluorescent protein for standardization. Luciferase activity is denoted in luciferase activity units (LUC) and standardized using GFP fluorescent (GFP). B, Wnt5a and IL-1β effect time course on COX-2 promoter activity. […] Luciferase activity (LUC) was measured in ARPE-19 cells in the presence of 50 ng/ml Wnt5a or 20 ng/ml IL1-β. […] Luciferase activity measured in cells incubated with 50 ng/ml Wnt5a in the presence or absence of 100 nM (+) and 200 nM (++) NPD1.

## CCC=CCC(O)C=CC=CC=CC(O)CC=CCC=CCCC(=O)O (centres unmarked) [10R, 17R diHDHA]
ARPE-19 cells and hpRPE
  UOS-dependent NFkB activation and apoptosis (FIG. 18B legend): counteracted these effects
Wnt5a/FZD5
  number of Wnt5a/FZD5 colocalized vesicles per field: decreased the amount of vesicles per field
Wnt5a/FZD5; listed as NPD1 stereoisomer, of 10-R, 17R configuration
  number of Wnt5a/FZD5 colocalized vesicles per field: showed the same effect as NPD1

## CC/C=C\C/C=C\C[C@H](O)\C=C/C=C/C=C/[C@H](O)C/C=C\CCC(=O)O [Maresin-1]
ARPE-19 cells and hpRPE
  UOS-dependent NFkB activation and apoptosis (FIG. 18B legend): counteracted these effects

## O=C1NC(=NS(=O)(=O)c2cccc3ccccc23)S/C1=C\c1ccc(Br)cc1 [Pitstop2]
Wnt5a; cells undergoing UOS+/−NPD1 and Pitstop2
  cellular Wnt5a (cWnt5a) abundance: did not modify cWnt5a abundance
Wnt5a; hpRPE cells under UOS, Pitstop2 added 2 hours before harvesting
  secreted Wnt5a (sWnt5a) in medium: reverted the effect of NPD1 on sWnt5a; also recorded: increase in secreted Wnt5a; also recorded: increase in sWnt5a
NF-κB/p65
  NF-κB/p65 activation (luciferase): decreases the activation of p65/NF-κB; also recorded: interferes with the activation of NF-κB/p65; also recorded: decreases the activation of p65/NFkB; also recorded: interferes with the activation of NFkB/p65
Wnt5a/FZD5; 25 μM Pitstop2, control and UOS treated cells, rWnt5a added
  number of Wnt5a/FZD5 co-localized vesicles in the presence of Pitstop2: prevented the increased in Wnt5a/FZD5 co-localized vesicles; also recorded: inhibition produced by Box5 was reverted

## CC/C=C\C[C@H](O)/C=C/C=C\C=C\C=C\[C@@H](O)[C@@H](O)C/C=C\CCC(=O)O [RvD1, 7S,8R,17S-trihydroxy-DHA]
ARPE-19 cells and hpRPE
  UOS-dependent NFkB activation and apoptosis (FIG. 18B legend): counteracted these effects

## CC/C=C\C[C@H](O)[C@H](O)/C=C/C=C/C=C\C=C\[C@@H](O)C/C=C\CCC(=O)O [RvD2, 7S,16R,17S-trihydroxy-DHA]
ARPE-19 cells and hpRPE
  UOS-dependent NFkB activation and apoptosis (FIG. 18B legend): counteracted these effects

## IL-1 β: cytokine that enhances COX-2 expression, used for comparison with Wnt5a
COX-2 promoter
  COX-2 promoter activation (luciferase): growing staggered pattern of COX-2 promoter activation through at least 16 hours
